Values after ≈ are worked out from the molar mass of the structure shown. Where only a bound is given, the exact number is not on record here.

The test system of experiment [1] is Mycoplasmoides pneumoniae. Description: Antimicrobial activity against Mycoplasma pneumoniae ATCC 15531 by broth microdilution method. (In general: In broth dilution the organism is exposed to a series of concentrations in liquid medium.)
Experiment [2] concerns Mycoplasmoides pneumoniae. Description: Antimicrobial activity against macrolide-resistant Mycoplasma pneumoniae clinical isolates obtained from bronchial aspirations expressing 23S rRNA A2063G mutant gene and P1 RFLP type I gene by broth microdilution method. Format: functional.

As to `COc1c(N2C[C@@H]3CCCN[C@@H]3C2)c(F)cc2c(=O)c(C(=O)O)cn(C3CC3)c12` [MOXIFLOXACIN], the MIC (usually the lowest concentration found to suppress growth) in experiment [1] worked out at 0.06 µg/mL (≈ 0.149 µM).
Same read-out and setting: the value for `O=C(O)c1cn(C2CC2)c2cc(N3CCNCC3)c(F)cc2c1=O` [CIPROFLOXACIN] was 0.25 µg/mL (≈ 0.754 µM).
In turn, `C[C@H]1COc2c(N3CCN(C)CC3)c(F)cc3c(=O)c(C(=O)O)cn1c23.C[C@H]1COc2c(N3CCN(C)CC3)c(F)cc3c(=O)c(C(=O)O)cn1c23.O` [LEVOFLOXACIN] displayed an MIC in experiment [1] of 0.25 µg/mL. Besides, in experiment [2], the minimum inhibitory concentration (MIC) worked out at 0.015 µg/mL; the MIC50 – broadly, the lowest concentration that inhibits either 50% of growth or 50% of the strains tested, depending on the study – worked out at 0.25 µg/mL; the MIC90 (as a rule, an inhibitory concentration at the 90% level, which refers to growth in some studies and to a panel of isolates in others) amounted to 0.5 µg/mL.
In turn, `CO[C@@H]1[C@@H](O[C@@H]2O[C@H](C)[C@@H](O[C@H]3C[C@@](C)(O)[C@@H](OC(=O)CC(C)C)[C@H](C)O3)[C@H](N(C)C)[C@H]2O)[C@@H](CC=O)C[C@@H](C)[C@@H](O)/C=C/C=C/C[C@@H](C)OC(=O)C[C@H]1OC(C)=O` [JOSAMYCIN] came in with an MIC in experiment [1] of at most 0.007 µg/mL. Besides, in experiment [2], the MIC was at most 0.007 µg/mL, the MIC50 was determined as 2 µg/mL (≈ 2.42 µM) and the MIC90 was 4 µg/mL (≈ 4.83 µM).
In experiment [1], `CN(C)c1ccc(O)c2c1C[C@H]1C[C@H]3[C@H](N(C)C)C(O)=C(C(N)=O)C(=O)[C@@]3(O)C(O)=C1C2=O` [MINOCYCLINE] showed an MIC of 0.06 µg/mL (≈ 0.131 µM). Further, in experiment [2], the minimum inhibitory concentration (MIC) is at most 0.007 µg/mL, the MIC50 is 0.06 µg/mL (≈ 0.131 µM) and the MIC90 turned out to be 0.125 µg/mL (≈ 0.273 µM).
As for `CC[C@H]1OC(=O)[C@H](C)[C@@H](O[C@H]2C[C@@](C)(OC)[C@@H](O)[C@H](C)O2)[C@H](C)[C@@H](O[C@@H]2O[C@H](C)C[C@H](N(C)C)[C@H]2O)[C@](C)(OC)C[C@@H](C)C(=O)[C@H](C)[C@@H](O)[C@]1(C)O` [CLARITHROMYCIN], the MIC in experiment [1] was at most 0.007 µg/mL. In experiment [2], this compound displayed a minimal inhibitory concentration (MIC) of at most 0.007 µg/mL, an MIC50 of 128 µg/mL (≈ 171 µM) and an MIC90 above 128 µg/mL.
On to `C[C@H]1c2cccc(O)c2C(=O)C2=C(O)[C@]3(O)C(=O)C(C(N)=O)=C(O)[C@@H](N(C)C)[C@@H]3[C@@H](O)[C@@H]21.O` [DOXYCYCLINE], for which inhibition of growth in experiment [1] (MIC) required 0.03 µg/mL. Further, in experiment [2], the MIC is at most 0.007 µg/mL, the MIC50 is 0.06 µg/mL and the MIC90 turned out to be 0.125 µg/mL.
The compound `CC[C@H]1OC(=O)[C@H](C)[C@@H](O[C@H]2C[C@@](C)(OC)[C@@H](O)[C@H](C)O2)[C@H](C)[C@@H](O[C@@H]2O[C@H](C)C[C@H](N(C)C)[C@H]2O)[C@](C)(O)C[C@@H](C)CN(C)[C@H](C)[C@@H](O)[C@]1(C)O` [AZITHROMYCIN] gave an MIC in experiment [1] of at most 0.007 µg/mL. In addition, in experiment [2], the MIC was at most 0.007 µg/mL, the MIC50 turned out to be 16 µg/mL (≈ 21.4 µM) and the MIC90 came to 64 µg/mL (≈ 85.4 µM).
In turn, `CN(C)[C@@H]1C(O)=C(C(N)=O)C(=O)[C@@]2(O)C(O)=C3C(=O)c4c(O)cccc4[C@@](C)(O)[C@H]3C[C@@H]12` [TETRACYCLINE] registered an MIC in experiment [1] of 0.06 µg/mL (≈ 0.135 µM). In experiment [2], the MIC came to 0.015 µg/mL (≈ 0.0338 µM), the MIC50 amounted to 0.06 µg/mL (≈ 0.135 µM) and the MIC90 turned out to be 0.125 µg/mL (≈ 0.281 µM).
Compound `CC[C@H]1OC(=O)[C@H](C)[C@@H](O[C@H]2C[C@@](C)(OC)[C@@H](O)[C@H](C)O2)[C@H](C)[C@@H](O[C@@H]2O[C@H](C)C[C@H](N(C)C)[C@H]2O)[C@](C)(O)C[C@@H](C)C(=O)[C@H](C)[C@@H](O)[C@]1(C)O` [ERYTHROMYCIN] displayed a minimal inhibitory concentration (MIC) in experiment [1] of at most 0.007 µg/mL. In experiment [2], this compound yielded a minimal inhibitory concentration (MIC) of at most 0.007 µg/mL, an MIC50 above 128 µg/mL and an MIC90 above 128 µg/mL.

The values above are taken from ChEMBL document CHEMBL1649430, “Antimicrobial susceptibility of Mycoplasma pneumoniae isolates and molecular analysis of macrolide-resistant strains from Shanghai, China” (2009).
